Data: article PMC4984525 (Cancer, 2011)

Test: Plasma pharmacokinetics of ARRY-520
Assay type: in vivo, human
Conditions: for coefficient of variation (CV) for CL: inter-patient variability; for AUC(0-t) / clearance / Cmax / MRT / Tmax / Vd / half-life: human, plasma, intravenous; for MRT / Tmax / half-life: median (min-max)

## CON(C)C(=O)N1N=C(c2cc(F)ccc2F)S[C@@]1(CCCN)c1ccccc1 [ARRY-520]
Schedule 1, Cycle 1
  coefficient of variation (CV) for CL: 50.7%
Schedule 1, Cycle 2
  coefficient of variation (CV) for CL: 77.1%
Schedule 1, following a single infusion, postinitiation of infusion, all cohorts
  time plasma concentrations maintained above 2 ng/mL: greater than 7 days
Schedule 2, all cohorts
  time geometric mean plasma concentrations maintained above 2 ng/mL: more than 14 days
Schedule 2, dosing at 48-hour intervals
  overall ratio of AUC0–24 on Day 5 compared to Day 1: 2.23
0.8 mg/m^2, AUC0–24, Schedule 2, Cycle 1 Day 1, 0.8 mg/m^2 (N=3), geometric mean (geometric %CV)
  AUC(0-t): 116 ng·h/mL
0.8 mg/m^2, AUC0–24, Schedule 2, Cycle 1 Day 5, 0.8 mg/m^2 (N=3), geometric mean (geometric %CV)
  AUC(0-t): 179 ng·h/mL
0.8 mg/m^2, CL, Schedule 2, Cycle 1 Day 1, 0.8 mg/m^2 (N=3), geometric mean (geometric %CV)
  clearance: 109 mL/min
0.8 mg/m^2, CL, Schedule 2, Cycle 1 Day 5, 0.8 mg/m^2 (N=3), geometric mean (geometric %CV)
  clearance: 33.8 mL/min
0.8 mg/m^2, Cmax, Schedule 2, Cycle 1 Day 1, 0.8 mg/m^2 (N=3), geometric mean (geometric %CV)
  Cmax: 19.5 ng/mL
0.8 mg/m^2, Cmax, Schedule 2, Cycle 1 Day 5, 0.8 mg/m^2 (N=3), geometric mean (geometric %CV)
  Cmax: 25.3 ng/mL
0.8 mg/m^2, MRT, Schedule 2, Cycle 1 Day 5, 0.8 mg/m^2 (N=3)
  MRT: 130 h
0.8 mg/m^2, Tmax, Schedule 2, Cycle 1 Day 1, 0.8 mg/m^2 (N=3)
  Tmax: 1 h
0.8 mg/m^2, Tmax, Schedule 2, Cycle 1 Day 5, 0.8 mg/m^2 (N=3)
  Tmax: 1.08 h
0.8 mg/m^2, Vss, Schedule 2, Cycle 1 Day 1, 0.8 mg/m^2 (N=3), mean (%CV)
  Vd: 295 L
0.8 mg/m^2, Vss, Schedule 2, Cycle 1 Day 5, 0.8 mg/m^2 (N=3), mean (%CV)
  Vd: 193 L
0.8 mg/m^2, t1/2, Schedule 2, Cycle 1 Day 1, 0.8 mg/m^2 (N=3)
  half-life: 29.8 h
0.8 mg/m^2, t1/2, Schedule 2, Cycle 1 Day 5, 0.8 mg/m^2 (N=3)
  half-life: 92.5 h
1.2 mg/m^2, AUC0–24, Schedule 2, Cycle 1 Day 1, 1.2 mg/m^2 (N=6), geometric mean (geometric %CV)
  AUC(0-t): 133 ng·h/mL
1.2 mg/m^2, AUC0–24, Schedule 2, Cycle 1 Day 5, 1.2 mg/m^2 (N=6), geometric mean (geometric %CV)
  AUC(0-t): 320 ng·h/mL
1.2 mg/m^2, CL, Schedule 2, Cycle 1 Day 1, 1.2 mg/m^2 (N=6), geometric mean (geometric %CV)
  clearance: 130 mL/min
1.2 mg/m^2, CL, Schedule 2, Cycle 1 Day 5, 1.2 mg/m^2 (N=6), geometric mean (geometric %CV)
  clearance: 15.8 mL/min
1.2 mg/m^2, Cmax, Schedule 2, Cycle 1 Day 1, 1.2 mg/m^2 (N=6), geometric mean (geometric %CV)
  Cmax: 18.8 ng/mL
1.2 mg/m^2, Cmax, Schedule 2, Cycle 1 Day 5, 1.2 mg/m^2 (N=6), geometric mean (geometric %CV)
  Cmax: 24.3 ng/mL
1.2 mg/m^2, MRT, Schedule 2, Cycle 1 Day 5, 1.2 mg/m^2 (N=6)
  MRT: 134 h
1.2 mg/m^2, Tmax, Schedule 2, Cycle 1 Day 1, 1.2 mg/m^2 (N=6)
  Tmax: 1.09 h
1.2 mg/m^2, Tmax, Schedule 2, Cycle 1 Day 5, 1.2 mg/m^2 (N=6)
  Tmax: 1 h
1.2 mg/m^2, Vss, Schedule 2, Cycle 1 Day 1, 1.2 mg/m^2 (N=6), mean (%CV)
  Vd: 363 L
1.2 mg/m^2, Vss, Schedule 2, Cycle 1 Day 5, 1.2 mg/m^2 (N=6), mean (%CV)
  Vd: 239 L
1.2 mg/m^2, t1/2, Schedule 2, Cycle 1 Day 1, 1.2 mg/m^2 (N=6)
  half-life: 25.6 h
1.2 mg/m^2, t1/2, Schedule 2, Cycle 1 Day 5, 1.2 mg/m^2 (N=6)
  half-life: 94.9 h
1.5 mg/m^2, AUC0–24, Schedule 2, Cycle 1 Day 1, 1.5 mg/m^2 (N=6), geometric mean (geometric %CV)
  AUC(0-t): 264 ng·h/mL
1.5 mg/m^2, AUC0–24, Schedule 2, Cycle 1 Day 5, 1.5 mg/m^2 (N=6), geometric mean (geometric %CV)
  AUC(0-t): 667 ng·h/mL
1.5 mg/m^2, CL, Schedule 2, Cycle 1 Day 1, 1.5 mg/m^2 (N=6), geometric mean (geometric %CV)
  clearance: 98.3 mL/min
1.5 mg/m^2, CL, Schedule 2, Cycle 1 Day 5, 1.5 mg/m^2 (N=6), geometric mean (geometric %CV)
  clearance: 18.5 mL/min
1.5 mg/m^2, Cmax, Schedule 2, Cycle 1 Day 1, 1.5 mg/m^2 (N=6), geometric mean (geometric %CV)
  Cmax: 57.9 ng/mL
1.5 mg/m^2, Cmax, Schedule 2, Cycle 1 Day 5, 1.5 mg/m^2 (N=6), geometric mean (geometric %CV)
  Cmax: 134 ng/mL
1.5 mg/m^2, MRT, Schedule 2, Cycle 1 Day 5, 1.5 mg/m^2 (N=6)
  MRT: 119 h
1.5 mg/m^2, Tmax, Schedule 2, Cycle 1 Day 1, 1.5 mg/m^2 (N=6)
  Tmax: 1 h
1.5 mg/m^2, Tmax, Schedule 2, Cycle 1 Day 5, 1.5 mg/m^2 (N=6)
  Tmax: 1.02 h
1.5 mg/m^2, Vss, Schedule 2, Cycle 1 Day 1, 1.5 mg/m^2 (N=6), mean (%CV)
  Vd: 251 L
1.5 mg/m^2, Vss, Schedule 2, Cycle 1 Day 5, 1.5 mg/m^2 (N=6), mean (%CV)
  Vd: 169 L
1.5 mg/m^2, t1/2, Schedule 2, Cycle 1 Day 1, 1.5 mg/m^2 (N=6)
  half-life: 26.1 h
1.5 mg/m^2, t1/2, Schedule 2, Cycle 1 Day 5, 1.5 mg/m^2 (N=6)
  half-life: 82.2 h
1.8 mg/m^2, AUC0–24, Schedule 2, Cycle 1 Day 1, 1.8 mg/m^2 (N=2), geometric mean
  AUC(0-t): 208 ng·h/mL
1.8 mg/m^2, AUC0–24, Schedule 2, Cycle 1 Day 5, 1.8 mg/m^2 (N=2), geometric mean
  AUC(0-t): 608 ng·h/mL
1.8 mg/m^2, CL, Schedule 2, Cycle 1 Day 1, 1.8 mg/m^2 (N=2), geometric mean
  clearance: 130 mL/min
1.8 mg/m^2, CL, Schedule 2, Cycle 1 Day 5, 1.8 mg/m^2 (N=2), geometric mean
  clearance: 18.3 mL/min
1.8 mg/m^2, Cmax, Schedule 2, Cycle 1 Day 1, 1.8 mg/m^2 (N=2), geometric mean
  Cmax: 24.4 ng/mL
1.8 mg/m^2, Cmax, Schedule 2, Cycle 1 Day 5, 1.8 mg/m^2 (N=2), geometric mean
  Cmax: 53.6 ng/mL
1.8 mg/m^2, MRT, Schedule 2, Cycle 1 Day 5, 1.8 mg/m^2 (N=2)
  MRT: 114 h
1.8 mg/m^2, Tmax, Schedule 2, Cycle 1 Day 1, 1.8 mg/m^2 (N=2)
  Tmax: 1 h
1.8 mg/m^2, Tmax, Schedule 2, Cycle 1 Day 5, 1.8 mg/m^2 (N=2)
  Tmax: 1 h
1.8 mg/m^2, Vss, Schedule 2, Cycle 1 Day 1, 1.8 mg/m^2 (N=2), mean
  Vd: 306 L
1.8 mg/m^2, Vss, Schedule 2, Cycle 1 Day 5, 1.8 mg/m^2 (N=2), mean
  Vd: 127 L
1.8 mg/m^2, t1/2, Schedule 2, Cycle 1 Day 1, 1.8 mg/m^2 (N=2)
  half-life: 27.1 h
1.8 mg/m^2, t1/2, Schedule 2, Cycle 1 Day 5, 1.8 mg/m^2 (N=2)
  half-life: 80 h
